Source: article PMC7343802, “The development of the dog heartworm is highly sensitive to sterols which activate the orthologue of the nuclear receptor DAF-12” (Scientific Reports, 2020)

What was measured:
CelDAF-12 = CelDAF-12 (Caenorhabditis elegans, UniProt G5EFF5); experiment: cell-based
D. immitis iL3 larvae = experiment: in vitro molting of infective third-stage larvae (iL3) into L4; format: cell-based, Dirofilaria immitis

CelDAF-12, sequence (G5EFF5 516-753): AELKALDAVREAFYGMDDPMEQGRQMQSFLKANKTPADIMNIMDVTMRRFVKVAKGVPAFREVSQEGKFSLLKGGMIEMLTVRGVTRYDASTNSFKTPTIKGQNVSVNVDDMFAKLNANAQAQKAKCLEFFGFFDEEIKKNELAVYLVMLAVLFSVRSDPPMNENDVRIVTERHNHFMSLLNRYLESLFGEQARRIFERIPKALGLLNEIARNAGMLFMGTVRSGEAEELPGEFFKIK

SMILES: CC(CCCC(C)C1CCC2C3=CCC4CC(=O)CCC4(C)C3CCC21C)C(=O)O [Δ7-DA, (25S)-Δ7-dafachronic acid]
- EC50 (CelDAF-12): 0.016 µM
- number of free cuticles (completed molt, L4) versus DMSO control (D. immitis iL3 larvae): significantly higher
- start of the molting process (day in culture) (D. immitis iL3 larvae): 3 to 4 days
- overall effect on molting of iL3 into L4 (D. immitis iL3 larvae; 10 µM): induced a rapid development of iL3 into L4
- percentage of iL3 which had initiated but not completed the molt, compared to DMSO control (D. immitis iL3 larvae; 10 µM, day 5 or 6): low percentage
